Experimental data as given in patent publication US12104190B2, “Taxadiene synthase TcTS2, encoding nucleotide sequence and use thereof” (AGRICULTURAL GENOMICS INSTITUTE AT SHENZHEN, CHINESE …, priority 2020, dated 2024).

How the values were obtained:
[1] = tested on: Taxus chinensis var. mairei cell line 211; experiment: Content changes of baccatin III and paclitaxel for different treatment times of MeJA (LC-MS); format: cell-based; settings: 100 μM MeJA
Experimental: (§1) Taxus chinensis var. mairei cell line 211 were divided into two groups: the experimental group (MeJA+) was soaked with 100 μM methyl jasmonate; the control group (MeJA−) was soaked with 0.05% ethanol solution. The experiments of the two groups were carried out at the same time, and the samples were collected after 0 h, 2 h, 3 h and 4 h respectively, for the analysis of the expression pattern of TcTSs gene and the content of baccatin III and paclitaxel, with three biological replicates.
The metabolites were extracted by the modified Wolfender method. The specific steps include: weighing 100 mg of lyophilized cell powder to place it in a 2 ml centrifuge tube, adding 1.5 ml of extraction buffer (methanol:water=80:20, v/v) and vortexing to suspend it, containing 500 ng/ml dexamethasone as the internal standard, after ultrasonic extraction for 30 min, centrifuging at 14,000 g for 15 min; the supernatant was centrifuged and dried in a vacuum concentrator (LABCONCO), and finally the sample was resuspended in 200 μL methanol solvent (80:20, v/v) for LCMS analysis. Samples were analyzed by LC-MS by using an ACQUITY UPLC I-Class/AB SCIEX (Waters) instrument.
The separation column was Waters (2.1×50 mm; ACQUITY UPLC™ Waters XselectHSS T3); the injection volume was 10 μL, and the flow rate was 0.2 mL/min.
The mobile phase composition: A was 0.1% formic acid methanol; B was 0.1% formic acid water.
The LC separation procedure was as follows: equilibrating with 40% A for 2 min, followed by gradient elution for 10 min to 100% B, maintaining for 2 min, and then returning to 40% A equilibration for 1 min. ESI ion source, positive ion mode. Data acquisition and processing were performed on AB SCIEXAnalyst 1.6.3 software (Applied Biosystems).

TcTS2 gene = experiment: Expression pattern of TcTS2 gene under MeJA stress (qPCR); format: cell-based, Taxus chinensis var. mairei; settings: 100 μM MeJA, 4 h, 2^−ΔΔCt, reference TcACTIN1
Experimental: as §1
(§2) EASYspin Plant Total RNA Extraction Kit (Aidlab, Beijing) was used to extract and collect the total RNA of the samples with different treatment times. 1 μg of total RNA of different samples was respectively taken for the synthesis of the first-strand cDNA, using it as the template for real-time fluorescence quantitative PCR. Kit Hifair® III 1st Strand cDNA Synthesis (YEASEN, China) and qPCR fluorescent dye kit Hieff® qPCR SYBR® Green Master Mix (Low Rox Plus) (commercial reagents, purchased from YEASEN, China) were used for the first-strand cDNA synthesis. qPCR experiments were performed on the QuantStudio™ 3 system with 2 technical replicates and 3 biological replicates. Actin1 (TcACTIN1) gene of Taxus chinensis var. mairei was used as an internal reference gene, and the relative expression of TcTSs genes was calculated by using the 2^−ΔΔCt method.

TcTS1 gene = experiment: Expression pattern of TcTS1 gene under MeJA stress (qPCR); format: cell-based, Taxus chinensis var. mairei; settings: 100 μM MeJA, 0-4 h, 2^−ΔΔCt, reference TcACTIN1
Experimental: as §1, §2

[2] = In vitro activity of TcTSs-His6 (GC-MS of enzymatic reaction product); format: biochemical, Taxus chinensis var. mairei; settings: 100 μg purified protein, 100 μM GGPP, 32° C., 2 h
Experimental: The in vitro enzymatic reaction system was 500 μL, containing 100 μg purified protein, 100 μM GGPP (Sigma-Aldrich) and enzyme reaction buffer (25 mM, pH 8.5, 10% glycerol, 5 mM DTT, 5 mM ascorbate, 5 mM sodium metabisulfite and 1 mM MgCl2), the reaction mixture was covered with 500 μL of pentane (Macklin, GC-MS grade) and reacted in a 32° C. water bath for 2 h, vortexing for 2 min, centrifuging at 5000 rpm for 10 min; the pentane layer was taken out, putting into 2 mL of the sample, concentrating at low temperature by using a nitrogen blower; the product was analyzed by gas chromatography mass spectrometry (GC-MS) instrument.
The control group was the reaction product of purified recombinant protein TcTSs-His6 after being boiled at 100° C. for 10 min. The GC-MS instrument was Agilent 7890B/7000C (Agilent Technologies, Waldbronn, USA), mass spectrometry detector parameters: 70 eV, helium flow rate 1.2 mL/min, chromatographic column Agilent HP-5 MS (5% phenylmethyl silica, 30 m×250 μm inner diameter, 0.25 μm film thickness), the injection volume is 1-5 μL; the temperature program of the column oven is as follows: 45° C. for 1 min, then 10° C./min gradient increase to 250° C., and remaining at 250° C. for 5 min. […]

[3] = Kinetic constants of TcTSs-His6 ([1-3H]-GGPP, liquid scintillation counting); format: biochemical, Taxus chinensis var. mairei
Experimental: Kinetic parameter detection: standard enzymatic reaction with a total volume of 100 μL, containing enzyme reaction buffer (25 mM, pH 8.5, 10% glycerol, 5 mM DTT, 5 mM ascorbate, 5 mM sodium metabisulfite and 1 mM MgCl2), 34 μg (TcTS1-His6) or 18 μg (TcTS2-His6) recombinant protein, and […] concentrations of GGPP (0.2 μM, 0.5 μM, 1 μM, 2.5 μM, 5 μM, 10 μM, 25 μM, 50 μM) mixed with […] substrate (American Radiolabeled Chemicals, Inc, 30 Ci/mM).
Labeled [1-3H]-GGPP was diluted 400-fold with unlabeled GGPP (Sigma, 1 mg/mL). The reaction mixture was reacted at 32° C. for 30 min, then quenching with 100 μL of stop buffer (containing IM EDTA and 4M NaOH) for 10 min; the reaction mixture was extracted with 800 μL of n-hexane (vortexing for 2 min, centrifuging at 12,000 rpm for 10 min); 400 μL of n-hexane extract was taken to add into 2 mL of liquid scintillation cocktail to mix well. The total radioactivity of the reaction products was determined by using a liquid scintillation counter (Tri-Carb 2910TR, Perkin Elmer). Kinetic constants were calculated by nonlinear regression fitting of Michaelis-Menten equation through Origin 8.6 software.

[4] = substrate GGPP, 32° C., 30 min, Michaelis-Menten fit

## CC/C=C\CC1C(=O)CCC1CC(=O)OC (centres unmarked) [MeJA, methyl jasmonate]
[1]; 2 h
  increased fold of baccatin III as compared to the control group: 1.48 times
  increased fold of paclitaxel as compared to the control group: 9.53 times
[1]; 4 h
  increase fold of baccatin III: 7.01 times
  increase fold of paclitaxel: 12.91 times
TcTS2 gene
  induction fold of TcTS2 expression relative to 0 h: 7
TcTS1 gene
  expression of TcTS1 under MeJA stress: up-regulated

B1: TcTS2-His6: taxadiene synthase from Taxus chinensis var. mairei, amino acid sequence SEQ ID NO: 1 (protein)
chain: MSSSPTKLATENANAVAESNLIPRLSANYHGDLWHHGVIQTLQTPYQESSSYQERAEELIVKIKDMFKAVEEGAISPSAYDTAWVARVPDGSEKPRFPQALNWLLHNQLQDGSWGLESHFMLSDRLLSTLNSVISLLVWKTGQQQVEQGTLFITENLKLLEGEDELPPDFEIIFPALLQKAKALGMSLPDHDLPFIKSLSVAREARLASYTDNNIPASMLNALEGLEEVIDWDKIMRFQMPCLYSIDLLERLSLVDNIEHLGIGRHFKQEIKVALDYVYRYWSERGIGLGRDSLIPDLNTTALGLRTLRAHGYNVSSEVLNNFKDENGRFFSSLGQTHVELRSMVNLLRASDLAFPDEPLMDDAKIFAEAYLRDALATRISTNTKLFKEIDYAVEYPWHMSIPRLEARSYIDVYDDDYTWQNKTLYRMSNLSNAYCLELAKLDFNIVQSLHQEELKLLTRWWKESGMADINFTRHRVAEVYFSSATFEPEYSSTRIAFTKIGCLQVLFDDMADIFATLDELRDFTEGVKRWDTSLIHKLPDCMQTCFRVWFNLMEEVNNDVSNVQGRDMLNHIRKPWELYFNCYVQEREWLDAGYIPTLEEYLKTYSISVGLGPCTLQPILLMGDIVKDDVVEKVHYPSNLFELVSLSWRLTNDTKTYQAEKARGQQASGIACYMKDNPGSTEEDAIKYICGVVDRALKEACFEYFKPADDVPMSCKSFIFNLRLCVQIFYKFIDGYGIANEEIKDYIRKVYIEPIQV
modifications: C-terminal His6 tag; Amino acid sequence of Taxadiene Synthase TcTS2
[2]
  main products taxa-4 (5), 11 (12)-diene (accounting for): 94%
  secondary products taxa-4 (20), 11 (12)-diene (accounting for): 4%
[3]; from Kcat values
  catalytic efficiency relative to TcTS1-His6 (Kcat value): 3 times
[3]; [4]
  Ka: 8.6 ± 1.5 pM/µg/min
  Kcat: 0.00901 s⁻¹
